Data on 27 compounds can be found in patent publication US8703922B2, “Low-viscosity liquid crystal compound” (Chemgenesis Incorporated, priority 2009, dated 2014).

What all share (assay type): physicochemical
Data set [1] in a line: Viscosity measurement with AR Rheometer (AR-G2) of the compounds of Examples 1-11. To be noted: 25° C., after allowing to stand for 12 hours. On the procedure:
(§1) The amphipathic compound according to the present invention is in a liquid or a semi-solid state with low viscosity within relatively a wide temperature range. The amphipathic compound according to the present invention preferably has viscosity of 11 Pa·s or less, generally 10 Pa·s or less, more preferably 4.0 Pa·s or less (e.g., 3.5 Pa·s or less), and further preferably 2.0 Pa·s or less, as measured using a viscometer at 25° C., for example. Such measured viscosity is typically measured at a shear rate of 105.7 l/s. To obtain such a measured value, an AR Rheometer (AR-G2, TA Instrument) or a viscosity and viscoelasticity measuring apparatus MARS (Thermo Fisher Scientific K.K.) can be used as a viscometer.
The viscosity of each of the compounds shown in the Examples 1-11 was measured using AR Rheometer (AR-G2, TA Instrument) after allowing to stand at the temperature of 25° C. for 12 hours.

A short description of data set [2]: Liquid crystal formation in compound/water system, analysed by small-angle X-ray scattering (SAXS). The following applies: room temperature (25° C.); for Type of liquid crystal formed (SAXS peak ratio): 50 wt % (water-excess condition); for Lattice constant (ac) of the cubic liquid crystal: SAXS. The text has this: Whether or not a liquid crystal structure has a cubic lattice may be determined by a small-angle X-ray scattering (SAXS) method, for the purpose of confirming whether or not it is cubic liquid crystal. First, an amphipathic compound/water system sample with a predetermined concentration can be added to an X-ray capillary tube made of quartz, for example, and the capillary tube is sealed with an oxy-fuel burner, and subjected to SAXS assay.
Ratio of Pn3m Cubic Liquid Crystal: √{square root over (2)}: √{square root over (3)}: √{square root over (4)}: √{square root over (6)}: √{square root over (8)}: √{square root over (9)}: √{square root over (10)}: , , , [Mathematical expression 1] Ratio of Ia3d Cubic Liquid Crystal: √{square root over (3)}: √{square root over (4)}: √{square root over (7)}: √{square root over (8)}: √{square root over (10)}: √{square root over (11)}: , , , [Mathematical expression 2] Ratio of Im3m Cubic Liquid Crystal: √{square root over (2)}: √{square root over (4)}: √{square root over (6)}: √{square root over (8)}: √{square root over (10)}: √{square root over (12)}: √{square root over (14)}: , , , [Mathematical expression 3]
A peak value is calculated from SAXS data and then the reciprocal ratio is found therefrom according to a method known by persons skilled in the art, so that the space group and the lattice constant can be easily determined.
Mono-O-(5,9,13,17-tetramethyloctadec-4-enoyl)pentaerythritol and pure water were introduced into a mixing device at the concentration of 50 wt % Mono-O-(5,9,13,17-tetramethyloctadec-4-enoyl)pentaerythritol (water-excess condition), and incubation thereof was carried out while performing 100 or more times of mixing operations at room temperature (25° C.) over the period of 24 hours. Thus, a homogeneously mixed sample of mono-O-(5,9,13,17-tetramethyloctadec-4-enoyl)pentaerythritol/water system was obtained. This sample of mono-O-(5,9,13,17-tetramethyloctadec-4-enoyl)pentaerythritol/water system appeared to be a white turbid gel composition.
Subsequently, the thus obtained sample of mono-O-(5,9,13,17-tetramethyloctadec-4-enoyl)pentaerythritol/water system was confirmed to be a cubic liquid crystal by small-angle x-ray scattering (SAXS). The sample of mono-O-(5,9,13,17-tetramethyloctadec-4-enoyl)pentaerythritol/water system was introduced into a quartz X-ray capillary tube, the tip of the capillary was sealed using an oxygen burner, and the capillary tube was subjected to the SAXS analysis. The NANO-Viewer nano-scale X-ray structure analysis equipment (Rigaku) was used for SAXS analysis. SAXS analysis was performed by X-ray irradiation at room temperature (25° C.), 40 kV, 50 mA, wavelength λ=0.1542 nm (Cu-Kα) for 15 min.

Data set [3] is described as follows: Viscosity measurement with viscosity and viscoelasticity measuring apparatus MARS (Example 179). To be noted: 25° C., shear velocity 105.7 s^−1, MARS. The method, then: as §1
The viscosities of the amphiphilic compounds synthesized above were measured at 25° C. and at a shear velocity of 105.7 s^−1 using a viscosity and viscoelasticity measuring apparatus MARS (Thermo Fisher Scientific).

In data set [1], `CC(=CCCCOC[C@H](O)[C@H](O)CO)CCCC(C)CCCC(C)CCCC(C)C` (some centres unmarked) [1-O-(5,9,13,17-tetramethyloctadec-4-enyl)erythritol] registered a Viscosity of 2.3 Pa·s. Also, the “Type of liquid crystal formed (SAXS peak ratio)” value (“Type … (SAXS peak ratio)” below) in data set [2] was “reverse hexagonal liquid crystal”. Take `CC(=CCCCOC(CO)C(O)CO)CCCC(C)CCCC(C)CCCC(C)C` (centres unmarked) [2-O-(5,9,13,17-tetramethyloctadec-4-enyl)erythritol]: the Viscosity in data set [1] turned out to be 3.2 Pa·s. Moreover, in data set [2], the “Type … (SAXS peak ratio)” value was “cubic liquid crystal that belong to the crystallographic space group Pn3m” and the “Lattice constant (ac) of the cubic liquid crystal” value (from here on “Lattice constant (ac)”) was determined as 8.9 nm. As for `CC(=CCCC(=O)OCC(CO)(CO)CO)CCCC(C)CCCC(C)CCCC(C)C` (centres unmarked) [Example 1, mono-O-(5,9,13,17-tetramethyloctadec-4-enoyl)pentaerythritol], the Viscosity in data set [1] is recorded as 1.7 Pa·s. Also, in data set [2], the “Type … (SAXS peak ratio)” value is “cubic liquid crystal that belong to the crystallographic space group Pn3m” and the “Lattice constant (ac)” value was 7.80 nm. The compound `CC(=CCCC(=O)OC[C@H](O)[C@H](O)CO)CCCC(C)CCCC(C)CCCC(C)C` (some centres unmarked) [Example 2, mono-O-(5,9,13,17-tetramethyloctadec-4-enoyl)erythritol] displayed a Viscosity in data set [1] of 2.0 Pa·s. In addition, in data set [2], the “Type … (SAXS peak ratio)” value is recorded as “reverse hexagonal liquid crystal”. Regarding `CC(=CCCC(=O)OCC(O)CO)CCCC(C)CCCC(C)CCCC(C)C` (centres unmarked) [Example 3, mono-O-(5,9,13,17-tetramethyloctadec-4-enoyl)glycerol], the “Type … (SAXS peak ratio)” value in data set [2] is on record as “cubic liquid crystal that belong to the crystallographic space group Pn3m”. In the case of `CC(=CCCCOC1OCC(O)C(O)C1O)CCCC(C)CCCC(C)CCCC(C)C` [Example 9, 1-O-(5,9,13,17-tetramethyloctadec-4-enyl)-D-xylopyranoside], in data set [2], the “Type … (SAXS peak ratio)” value is “cubic liquid crystal that belong to the crystallographic space group Pn3m” and the “Lattice constant (ac)” value was found to be 8.9 nm. In data set [1], `CC(=CCCCOCC(CO)(CO)CO)CCCC(C)CCCC(C)CCCC(C)C` (centres unmarked) [Example 10, mono-O-(5,9,13,17-tetramethyloctadec-4-enyl)pentaerythritol] came in with a Viscosity of 1.9 Pa·s. For the same compound, the “Type … (SAXS peak ratio)” value in data set [2] was “reverse hexagonal liquid crystal”. On to `CC(=CCCCOCC(O)CO)CCCC(C)CCCC(C)CCCC(C)C` (centres unmarked) [Example 31, mono-O-(5,9,13,17-tetramethyloctadec-4-enyl)glycerol], for which, in data set [3], the “Viscosity (Pas · sec)” value is recorded as 0.44 Pas · sec. Regarding `CC(=CCCCOCC(O)COCC(O)CO)CCCC(C)CCCC(C)CCCC(C)C` (centres unmarked) [Example 32, mono-O-(5,9,13,17-tetramethyloctadec-4-enyl)diglycerol], the “Type … (SAXS peak ratio)” value in data set [2] is “cubic liquid crystal that belong to the crystallographic space group Pn3m”.

Turning to `CC(=CC(=O)OCC(O)CO)CCCC(C)CCCC(C)CCCC(C)C` (centres unmarked) [Example 65, mono-O-(3,7,11,15-tetramethylhexadec-2-enoyl)glycerol], the “Viscosity (Pas · sec)” value in data set [3] is on record as 1.1 Pas · sec.

For the compound `CC(=CC(=O)OCC(CO)(CO)CO)CCCC(C)CCCC(C)CCCC(C)C` (centres unmarked) [Example 67, mono-O-(3,7,11,15-tetramethylhexadec-2-enoyl)pentaerythritol], in data set [3], the “Viscosity (Pas · sec)” value worked out at 10.6 Pas · sec. For `CC(=CC(=O)OCC(O)COCC(O)CO)CCCC(C)CCCC(C)CCCC(C)C` (centres unmarked) [Example 68, mono-O-(3,7,11,15-tetramethylhexadec-2-enoyl)diglycerol], in data set [3], the “Viscosity (Pas · sec)” value was found to be 9.5 Pas · sec. On the same count and under the same terms, as for `CC(=CCOCC(O)CO)CCCC(C)CCCC(C)CCCC(C)C` (centres unmarked) [Example 80, mono-O-(3,7,11,15-tetramethylhexadec-2-enyl)glycerol], the figure is 0.45 Pas · sec.

As to `CC(=CCOCC(CO)(CO)CO)CCCC(C)CCCC(C)CCCC(C)C` (centres unmarked) [Example 82, mono-O-(3,7,11,15-tetramethylhexadec-2-enyl)pentaerythritol], the “Viscosity (Pas · sec)” value in data set [3] came out at 4.0 Pas · sec.

In the case of `CC(=CCCC(=O)OCC(O)CO)CCCC(C)CCCC(C)C` (centres unmarked) [Example 92, mono-O-(5,9,13-trimethyltetradec-4-enoyl)glycerol], the “Type … (SAXS peak ratio)” value in data set [2] was “mixture of a cubic liquid crystal that belong to the crystallographic space group Pn3m and a reverse hexagonal liquid crystal”. Besides, in data set [3], the “Viscosity (Pas · sec)” value is listed as 0.48 Pas · sec. In the case of `CC(=CCCC(=O)OCC(O)COCC(O)CO)CCCC(C)CCCC(C)C` (centres unmarked) [Example 95, mono-O-(5,9,13-trimethyltetradec-4-enoyl)diglycerol], in data set [3], the “Viscosity (Pas · sec)” value is given as 10.5 Pas · sec. Regarding `CC(=CCCCOC1OCC(O)C(O)C1O)CCCC(C)CCCC(C)C` [Example 103, 1-O-(5,9,13-trimethyltetradec-4-enyl)-D-xylopyranoside], the “Type … (SAXS peak ratio)” value in data set [2] is recorded as “cubic liquid crystal that belong to the crystallographic space group Pn3m”. As to `CC(=CCCCOCC(O)CO)CCCC(C)CCCC(C)C` (centres unmarked) [Example 107, mono-O-(5,9,13-trimethyltetradec-4-enyl)glycerol], the “Type … (SAXS peak ratio)” value in data set [2] is “reverse hexagonal liquid crystal”.

`CC(=CCCCOCC(CO)(CO)CO)CCCC(C)CCCC(C)C` (centres unmarked) [Example 109, mono-O-(5,9,13-trimethyltetradec-4-enyl)pentaerythritol]: the “Viscosity (Pas · sec)” value in data set [3] came to 0.98 Pas · sec.

Take `CC(=CCCCOCC(O)COCC(O)CO)CCCC(C)CCCC(C)C` (centres unmarked) [Example 110, mono-O-(5,9,13-trimethyltetradec-4-enyl)diglycerol]: the “Viscosity (Pas · sec)” value in data set [3] is 1.7 Pas · sec. Turning to `CC(=CCC(=O)OCC(O)CO)CCCC(C)CCCC(C)C` (centres unmarked) [Example 120, mono-O-(4,8,12-trimethyltridec-3-enoyl)glycerol], the “Type … (SAXS peak ratio)” value in data set [2] is “cubic liquid crystal that belong to the crystallographic space group Pn3m”. For `CC(=CC(=O)OCC(O)CO)CCCC(C)CCCC(C)C` (centres unmarked) [Example 146, mono-O-(3,7,11-trimethyldodec-2-enoyl)glycerol], in data set [2], the “Type … (SAXS peak ratio)” value is given as “cubic liquid crystal that belong to the crystallographic space group Pn3m”. The “Viscosity (Pas · sec)” value in data set [3] is listed as 0.45 Pas · sec.

With `CC(=CC(=O)OC[C@H](O)[C@H](O)CO)CCCC(C)CCCC(C)C` (some centres unmarked) [Example 147, mono-O-(3,7,11-trimethyldodec-2-enoyl)erythritol], in data set [3], the “Viscosity (Pas · sec)” value was 7.1 Pas · sec. Regarding `CC(=CC(=O)OCC(O)COCC(O)CO)CCCC(C)CCCC(C)C` (centres unmarked) [Example 149, mono-O-(3,7,11-trimethyldodec-2-enoyl)diglycerol], the “Viscosity (Pas · sec)” value in data set [3] is 6.9 Pas · sec. Consider `CC(=CCOCC(CO)(CO)CO)CCCC(C)CCCC(C)C` (centres unmarked) [Example 163, mono-O-(3,7,11-trimethyldodec-2-enyl)pentaerythritol], for which, in data set [3], the “Viscosity (Pas · sec)” value is 2.7 Pas · sec. For the compound `CC(=CCOC[C@H](O)[C@@H](O)[C@H](O)CO)CCCC(C)CCCC(C)C` (some centres unmarked) [Example 166, mono-O-(3,7,11-trimethyldodec-2-enyl)xylitol], in data set [3], the “Viscosity (Pas · sec)” value was determined as 1.1 Pas · sec. For the compound “mono-O-(5,9,13,17-tetramethyloctadec-4-enoyl)di glycerol [Example 4]”, the “Type … (SAXS peak ratio)” value in data set [2] was “reverse hexagonal liquid crystal”. Further, the “Viscosity (Pas · sec)” value in data set [3] turned out to be 4.5 Pas · sec.
